Results on three compounds are retold here after paper PMC10303271, “Synthesis and Receptor Binding Studies of α5 GABAAR Selective Novel Imidazodiazepines Targeted for Psychiatric and Cognitive Disorders” (Molecules, 2023).

For test [1], the target named is kappa opioid receptors (KOR) (Homo sapiens, UniProt P41145). Description: PDSP radioligand binding at KOR. To be noted: for inhibition at 10 µM: 1.5 h, at 10,000 nM, N = 5, [3H]-U69593 0.83 nM, read-out: Primary Binding %KOR. From the text: (§1) Opioid receptors are a family of inhibitory G-coupled protein receptors where opioids act as the ligand. The kappa opioid receptors (KOR), µ and δ opioid receptors (MOR and DOR), and nociception opioid receptor (NOP) fall under the family of opioids receptors. It has been reported that oxadiazole imidazodiazepines can mediate analgesic and anti-inflammatory properties mediated also by the κ opioid receptor (KOR). The binding at KOR is usually silent. The affinities of the test compounds for KOR, DOR, and MOR were determined using radioligand binding assays at a screening concentration of 10,000 nM in collaboration with the National Institute of Mental Health’s Psychoactive Drug Screening Program (PDSP), as mentioned before. Concentration-dependent experiments were conducted to determine Ki values for the compounds that exceeded more than 50% radioligand displacement in primary binding assays.
(§2) The NIMH PDSP assay protocol book [https://kidbdev.med.unc.edu/databases/PDSP%20Protocols%20II%202013-03-28.pdf accessed on 23 April 2023]. describes the protocols for primary and secondary radio-ligand binding assays. These assays were carried out in a final volume of 125 µL per well in the appropriate binding buffer.
(§3) The binding of a ligand to a receptor, ion channel, or transporter was determined in the […] of 10 µM of the appropriate reference compound. […] Plates were incubated in the dark for 90 min at rt, and the reactions were stopped by vacuum filtration onto 0.3% polyethyleneimine (PEI) soaked 96-well filter mats using a 96-well Filtermateharvester. This was followed by three washes with cold PBS buffer. Radioactivity was then counted on a Microbeta counter. Nonlinear regression was used to analyze the data with N = 6 replicates.

The target in the next test is T1, MOR (Homo sapiens, UniProt P35372).
T1 construct: purchased NIMH Psychoactive Drug Screening Program (PDSP)
Description: PDSP radioligand binding at MOR. As to conditions: 1.5 h; at 10,000 nM; N = 5; [3H]-DAMGO 1.20 nM; read-out: Primary Binding %MOR.
Text: as §1, §2, §3

The target in another test is T2, DOR (Homo sapiens, UniProt P41143).
T2 construct: purchased NIMH Psychoactive Drug Screening Program (PDSP)
Description: PDSP radioligand binding at DOR. To be noted: at 10,000 nM; N = 5; [3H]-DADLE 2.69 nM; read-out: Primary Binding %DOR.
Text: as §1, §2, §3

On the set-up of test [2]: method as in PMID 35266641, PMID 36712569, doi:10.1016/j.euroneuro.2019.09.268. As to conditions: autism, antipsychotic activity, cognitive disorders; cited from earlier work.

Chain of kappa opioid receptors (KOR) (P41145 whole entry): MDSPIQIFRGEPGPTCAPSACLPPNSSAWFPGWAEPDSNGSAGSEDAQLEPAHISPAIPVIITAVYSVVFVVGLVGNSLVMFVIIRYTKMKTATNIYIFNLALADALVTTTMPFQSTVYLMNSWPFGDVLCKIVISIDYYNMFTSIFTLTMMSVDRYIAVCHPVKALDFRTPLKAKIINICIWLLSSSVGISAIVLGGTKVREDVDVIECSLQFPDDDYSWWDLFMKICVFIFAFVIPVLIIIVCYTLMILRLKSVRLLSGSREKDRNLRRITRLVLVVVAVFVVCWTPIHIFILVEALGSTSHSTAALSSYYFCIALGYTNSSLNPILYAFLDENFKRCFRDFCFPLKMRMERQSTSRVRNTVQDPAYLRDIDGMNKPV
T1 sequence (P35372 whole entry): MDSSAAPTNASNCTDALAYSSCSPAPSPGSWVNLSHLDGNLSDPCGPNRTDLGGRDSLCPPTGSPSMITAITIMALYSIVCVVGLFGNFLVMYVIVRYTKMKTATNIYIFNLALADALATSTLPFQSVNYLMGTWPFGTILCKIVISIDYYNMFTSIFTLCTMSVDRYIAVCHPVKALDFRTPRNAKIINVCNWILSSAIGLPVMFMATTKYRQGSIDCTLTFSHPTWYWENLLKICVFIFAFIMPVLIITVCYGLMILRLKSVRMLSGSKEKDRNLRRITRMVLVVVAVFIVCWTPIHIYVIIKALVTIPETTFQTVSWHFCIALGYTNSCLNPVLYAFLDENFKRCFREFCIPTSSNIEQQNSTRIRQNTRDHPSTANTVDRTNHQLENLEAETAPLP
T2 sequence (P41143 whole entry): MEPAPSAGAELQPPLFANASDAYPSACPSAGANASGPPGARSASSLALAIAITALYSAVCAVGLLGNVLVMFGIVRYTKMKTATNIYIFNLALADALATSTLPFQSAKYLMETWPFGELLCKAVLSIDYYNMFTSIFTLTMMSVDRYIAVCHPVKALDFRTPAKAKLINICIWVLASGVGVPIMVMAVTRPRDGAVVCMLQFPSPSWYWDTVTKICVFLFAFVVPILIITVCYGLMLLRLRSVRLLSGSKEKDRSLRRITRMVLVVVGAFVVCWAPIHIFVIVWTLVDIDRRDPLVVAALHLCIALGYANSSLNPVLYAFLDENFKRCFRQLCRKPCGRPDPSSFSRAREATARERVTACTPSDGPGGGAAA

Take `CCc1noc(-c2ncn3c2[C@@H](C)N=C(c2ccccc2F)c2cc(C4CC4)ccc2-3)n1` [Compound 47]: the affinity in test [1] corresponds to a Ki of 248 ± 22.6 nM. The figures for the inhibition at 10 µM (in test [1]; at MOR; on DOR) were 91.3 ± 3.06%, 25.1 ± 12.8% and 67.3 ± 7.84%, respectively.

For the compound `C[C@H]1N=C(c2ccccc2F)c2cc(Cl)ccc2-n2cnc(C(=O)N(C)C)c21` [Compound 32, (R)-8-Chloro-6-(2′-fluorophenyl)-N,N,4-trimethyl-4H-benzo[f]imidazo[1,5-a][1,4]diazepine-3-carboxamide], the inhibition constant Ki (as a rule, the dissociation constant of the complex between target and ligand, obtained from inhibition or displacement) in test [1] was 731 ± 238 nM. For the same compound, the inhibition at 10 µM amounted to 81.4 ± 7.52% in test [1], 11.2 ± 5.47% at MOR and 14.4 ± 7.98% at DOR.

For `C#Cc1ccc2c(c1)C(c1ccccc1F)=N[C@H](C)c1c(C(=O)NC)ncn1-2` [MP-III-022], the “activity in psychiatric disorders” value in test [2] is listed as “active in low doses”.
